Laboratory results from BindingDB's records for doi:10.1016/j.bmcl.2011.11.008 (Korea Research Institute of Bioscience and Biotechnology, 2011).

Columns and labels:
[1] = Inhibition of PRL-3-mediated cell invasion in human DLD1 cells after 20 hrs using crystal violet staining by Matrigel invasion assay
[2] = Inhibition of PRL-3-mediated cell migration in human DLD1 cells after 15 hrs by crystal violet staining based microscopic assay

Cc1cc(O)c2c(c1)C(=O)c1cc(O)cc(O)c1C2=O [1,3,8-trihydroxy-6-methylanthra-9,10-quinone]
IC50 [1]: 35 µM
IC50 [2]: 28 µM
